Results reported in US8362000B2, “Azetidinyl diamides as monoacylglycerol lipase inhibitors” (Janssen Pharmaceutica NV, priority 2009, dated 2013).
Residue numbers refer to the chain shown, from its start. Where two headings read alike, the source gives them in different places.

Legend:
[1] = target: T1, MGL (Rattus norvegicus, UniProt Q8R431); assay: 2-AG accumulation assay in rat brain homogenate; format: biochemical; conditions: rat brain homogenate, 2-AG accumulation as percent of vehicle; for 2-AG accumulation, % of vehicle control at 10 µM: compound 10 μM, read-out: Rat Brain 2AG % VehCntrl (%) @ 10 μM
T1 construct: one g rat brain was homogenized using a Polytron homogenizer; from tissue; host or cells: rat brain homogenate
T1 sequence (Q8R431 1-303): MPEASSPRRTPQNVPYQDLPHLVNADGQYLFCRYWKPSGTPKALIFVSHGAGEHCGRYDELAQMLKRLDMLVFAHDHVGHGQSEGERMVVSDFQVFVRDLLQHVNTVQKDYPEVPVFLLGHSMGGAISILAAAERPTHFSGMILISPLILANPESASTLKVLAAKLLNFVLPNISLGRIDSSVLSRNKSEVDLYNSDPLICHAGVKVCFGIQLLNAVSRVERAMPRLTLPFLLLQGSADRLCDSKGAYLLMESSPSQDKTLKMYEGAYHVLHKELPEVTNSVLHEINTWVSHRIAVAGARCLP

[2] = target: T2, mutant MGL (Homo sapiens, UniProt Q99685, L169S/L176S); assay: MGL ThermoFluor assay - mutant; format: binding
T2 sequence (Q99685 1-303 L169S/L176S): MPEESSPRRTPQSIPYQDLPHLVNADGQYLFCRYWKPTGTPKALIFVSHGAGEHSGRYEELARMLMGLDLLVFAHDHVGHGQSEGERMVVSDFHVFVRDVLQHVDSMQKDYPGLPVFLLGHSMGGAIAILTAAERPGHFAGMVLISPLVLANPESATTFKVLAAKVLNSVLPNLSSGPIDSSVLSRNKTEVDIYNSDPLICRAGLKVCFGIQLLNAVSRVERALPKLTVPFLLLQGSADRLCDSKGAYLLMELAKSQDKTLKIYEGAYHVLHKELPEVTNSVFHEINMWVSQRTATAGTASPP

[3] = target: T3, purified wild type MGL (wt-MGLL 6H-11-313) (Homo sapiens, UniProt Q99685)
T3 sequence (Q99685 1-303): T2 sequence (Q99685 1-303 L169S/L176S) with S169L, S176L

[4] = ThermoFluor thermal stability binding assay, read-out: MGL mutant ThermoFluor Kd
[5] = ThermoFluor, compound concentration measured by qNMR, read-out: MGL mutant ThermoFluor qKd (μM) (using qNMR conc.)

SMILES | 2-AG accumulation, % of vehicle control at 10 µM [1] | IC50 [3] | also measured
O=C(c1ccccc1)N1CC(N2CCN(C(=O)c3ccc(-c4ccccc4)cc3)C(c3ccccc3)C2)C1 (stereo not drawn) [Cpd 44, 1-(Biphenyl-4-ylcarbonyl)-2-phenyl-4-[1-(phenylcarbonyl)azetidin-3-yl]piperazine] | 238% | – | –
O=C(c1ccccc1)N1CCN(C2CN(C(=O)c3ccc(-c4ccc(C(F)(F)F)cc4)cc3)C2)CC1 [Cpd 75, 1-(Phenylcarbonyl)-4-(1-{[4′-(trifluoromethyl)biphenyl-4-yl]carbonyl}azetidin-3-yl)piperazine] | 193% | – | –
Cc1c(C(=O)N2CC(N3CCN(C(=O)c4ccccc4)CC3)C2)sc2ccc(Cl)cc12 [Cpd 120, 1-{1-[(5-Chloro-3-methyl-1-benzothiophen-2-yl)carbonyl]azetidin-3-yl}-4-(phenylcarbonyl)piperazine] | 483% | – | –
O=C(c1ccccc1)N1CCN(C2CN(C(=O)c3ccc4c(ccn4-c4ccccc4)c3)C2)CC1 [Cpd 128, 1-Phenyl-5-({3-[4-(phenylcarbonyl)piperazin-1-yl]azetidin-1-yl}carbonyl)-1H-indole] | 688% | – | –
Cc1nc(-c2cccs2)sc1C(=O)N1CC(N2CCN(C(=O)c3nccs3)CC2)C1 [Cpd 134, 1-{1-[(4-Methyl-2-thiophen-2-yl-1,3-thiazol-5-yl)carbonyl]azetidin-3-yl}-4-(1,3-thiazol-2-ylcarbonyl)piperazine] | 582% | – | –
Cc1ccc(-c2nc(C)c(C(=O)N3CC(N4CCN(C(=O)c5nccs5)CC4)C3)s2)cc1 [Cpd 135, 1-(1-{[4-Methyl-2-(4-methylphenyl)-1,3-thiazol-5-yl]carbonyl}azetidin-3-yl)-4-(1,3-thiazol-2-ylcarbonyl)piperazine] | 592% | – | –
Cc1nc(-c2ccc(C(F)(F)F)cc2)sc1C(=O)N1CC(N2CCN(C(=O)c3nccs3)CC2)C1 [Cpd 136, 1-[1-({4-Methyl-2-[4-(trifluoromethyl)phenyl]-1,3-thiazol-5-yl}carbonyl)azetidin-3-yl]-4-(1,3-thiazol-2-ylcarbonyl)piperazine] | 612% | – | –
O=C(c1cccc(-c2cccs2)c1)N1CC(N2CCN(C(=O)c3nccs3)CC2)C1 [Cpd 137, 1-(1,3-Thiazol-2-ylcarbonyl)-4-{1-[(3-thiophen-2-ylphenyl)carbonyl]azetidin-3-yl}piperazine] | 441% | – | –
O=C(c1ccc(-c2cccs2)cc1)N1CC(N2CCN(C(=O)c3nccs3)CC2)C1 [Cpd 138, 1-(1,3-Thiazol-2-ylcarbonyl)-4-{1-[(4-thiophen-2-ylphenyl)carbonyl]azetidin-3-yl}piperazine] | 661% | – | –
O=C(c1ccc(-c2ccccc2C(F)(F)F)cc1)N1CC(N2CCN(C(=O)c3nccs3)CC2)C1 [Cpd 147, 1-(1,3-Thiazol-2-ylcarbonyl)-4-(1-{[2′-(trifluoromethyl)biphenyl-4-yl]carbonyl}azetidin-3-yl)piperazine] | 676% | – | –
Cc1ccc(F)cc1-c1ccc(C(=O)N2CC(N3CCN(C(=O)c4nccs4)CC3)C2)cc1 [Cpd 177, 1-{1-[(5′-Fluoro-2′-methylbiphenyl-4-yl)carbonyl]azetidin-3-yl}-4-(1,3-thiazol-2-ylcarbonyl)piperazine] | 768% | – | –
O=C(c1ccc(-c2ccc(F)cc2F)cc1)N1CC(N2CCN(C(=O)c3nccs3)CC2)C1 [Cpd 179, 1-{1-[(2′,4′-Difluorobiphenyl-4-yl)carbonyl]azetidin-3-yl}-4-(1,3-thiazol-2-ylcarbonyl)piperazine] | 910% | – | –
COc1cccc(-c2ccc(C(=O)N3CC(N4CCN(C(=O)c5nccs5)CC4)C3)cc2)c1 [Cpd 180, 1-{1-[(3′-Methoxybiphenyl-4-yl)carbonyl]azetidin-3-yl}-4-(1,3-thiazol-2-ylcarbonyl)piperazine] | 703% | – | –
O=C(c1ccc(-c2cccc3ncccc23)cc1)N1CC(N2CCN(C(=O)c3nccs3)CC2)C1 [Cpd 184, 5-[4-({3-[4-(1,3-Thiazol-2-ylcarbonyl)piperazin-1-yl]azetidin-1-yl}carbonyl)phenyl]quinoline] | 956% | – | –
O=C(c1ccccc1)N1CCN(C2CN(C(=O)c3ccc(-c4cccc(C(F)(F)F)c4)cc3)C2)CC1 [Cpd 186, 1-(Phenylcarbonyl)-4-(1-{[3′-(trifluoromethyl)biphenyl-4-yl]carbonyl}azetidin-3-yl)piperazine] | 521% | – | 2-AG accumulation, % of vehicle control at 0.01 µM ([1]; compound 0.01 μM, read-out: Rat Brain 2AG % VehCntrl (%) @ 0.01 μM): 123%; 2-AG accumulation, % of vehicle control at 0.1 µM ([1]; compound 0.1 μM, read-out: Rat Brain 2AG % VehCntrl (%) @ 0.1 μM): 199%; 2-AG accumulation, % of vehicle control at 1 µM ([1]; compound 1 μM, read-out: Rat Brain 2AG % VehCntrl (%) @ 1 μM): 260%
CC(C)Oc1cccc(-c2ccc(C(=O)N3CC(N4CCN(C(=O)c5ccccc5)CC4)C3)cc2)c1 [Cpd 188, 1-(1-{[3′-(1-Methylethoxy)biphenyl-4-yl]carbonyl}azetidin-3-yl)-4-(phenylcarbonyl)piperazine] | 506% | – | –

SMILES | 2-AG accumulation, % of vehicle control at 10 µM [1] | IC50 [3] | also measured
O=C(c1ccccc1)N1CCN(C2CN(C(=O)c3ccc(-c4cccc(F)c4)cc3)C2)CC1 [Cpd 195, 1-{1-[(3′-Fluorobiphenyl-4-yl)carbonyl]azetidin-3-yl}-4-(phenylcarbonyl)piperazine] | 365% | – | –
N#CCc1cccc(-c2ccc(C(=O)N3CC(N4CCN(C(=O)c5nccs5)CC4)C3)cc2)c1 [Cpd 207, [4′-({3-[4-(1,3-Thiazol-2-ylcarbonyl)piperazin-1-yl]azetidin-1-yl}carbonyl)biphenyl-3-yl]acetonitrile] | 402% | – | –
O=Cc1cccc(-c2ccc(C(=O)N3CC(N4CCN(C(=O)c5nccs5)CC4)C3)cc2)c1 [Cpd 210, 4′-({3-[4-(1,3-Thiazol-2-ylcarbonyl)piperazin-1-yl]azetidin-1-yl}carbonyl)biphenyl-3-carbaldehyde] | 122% | – | –
O=C(c1ccc[nH]1)N1CCN(C2CN(C(=O)c3cc4ccc(C(F)(F)F)nc4o3)C2)CC1 [Cpd 1446] | – | > 16.7 µM | Kd [2, 4]: 62.5 µM
O=C(c1ccc[nH]1)N1CCN(C2CN(C(=O)c3cc4ccc(C(F)(F)F)nc4[nH]3)C2)CC1 [Cpd 1447] | – | > 16.7 µM | Kd [2, 5]: 3.33 µM
O=C(c1cscn1)N1CCN(C2CN(C(=O)c3cc4cc(Br)cnc4o3)C2)CC1 [Cpd 1448] | – | > 16.7 µM | Kd [2, 4]: 7.09 µM
O=C(c1cscn1)N1CC(N2CCN(C(=O)c3cc4cc(Br)cnc4o3)CC2)C1 [Cpd 1449] | – | > 16.7 µM | Kd [2, 4]: 3.19 µM
O=C(c1cscn1)N1CCN(C2CN(C(=O)c3cc4nc(C(F)(F)F)ccc4[nH]3)C2)CC1 [Cpd 1450] | – | > 16.7 µM | Kd [2, 5]: 12.6 µM
Cc1cc2nc(C(=O)N3CC(N4CCN(C(=O)c5ccc[nH]5)CC4)C3)cn2cc1Br [Cpd 1451] | – | > 16.7 µM | Kd [2, 5]: > 16.2 µM
O=C(c1cn2cc(C(F)(F)F)ccc2n1)N1CC(N2CCN(C(=O)c3nccs3)CC2)C1 [Cpd 1453] | – | > 16.7 µM | Kd [2, 5]: 10 µM
O=C(c1nccs1)N1CCN(C2CN(C(=O)c3ncoc3-c3ccc(Cl)cc3)C2)CC1 [Cpd 1473] | – | > 16.7 µM | Kd [2, 4]: 6.67 µM
O=C(c1nc2cc(-c3cccnc3F)ccc2[nH]1)N1CC(N2CCN(C(=O)c3nccs3)CC2)C1 [Cpd 1476] | – | > 16.7 µM | Kd [2, 5]: 7.21 µM
O=C(c1ccccc1)N1CCN(C2CN(C(=O)c3ccc(N4CCOCC4)nc3)C2)CC1 [Cpd 1485, 4-[5-({3-[4-(Phenylcarbonyl)piperazin-1-yl]azetidin-1-yl}carbonyl)pyridin-2-yl]morpholine] | – | > 16.7 µM | Kd ([2]; ThermoFluor concentration-response, read-out: MGL mutant ThermoFluor Kd): 10 µM
CC(=O)N1CC[C@@H](c2ccccc2C(=O)N2CC(N3CCN(C(=O)c4ccccc4)CC3)C2)C1 [Cpd 1486] | – | > 16.7 µM | Kd [2, 4]: > 31.2 µM
Cc1c(C(=O)N2CC(N3CCN(C(=O)c4ccccc4)CC3)C2)oc2ccc(F)cc12 [Cpd 1490] | – | > 16.7 µM | Kd [2, 4]: > 31.2 µM
O=C(c1ccccc1)N1CCN(C2CN(C(=O)c3cc4cc(Cl)ccc4o3)C2)CC1 [Cpd 1491] | – | > 16.7 µM | Kd [2, 4]: 12.5 µM
